System: patients with treatment-resistant major depressive disorder
Assay: Clinical trial of inhaled 5-MeO-DMT in TRD patients: depression severity and psychiatric symptom scales
[1] = Patient 1, 2 h after single 12 mg inhaled dose, baseline 1
[2] = Patient 1, 2 h after single 12 mg inhaled dose, baseline 5
[3] = Patient 1, 1 d after single 12 mg inhaled dose, baseline 1
[4] = Patient 1, 1 d after single 12 mg inhaled dose, baseline 5
[5] = Patient 1, 7 d after single 12 mg inhaled dose, baseline 1
[6] = Patient 1, 7 d after single 12 mg inhaled dose, baseline 5
[7] = Patient 2, 2 h after single 12 mg inhaled dose, baseline 5
[8] = Patient 2, 1 d after single 12 mg inhaled dose, baseline 5
[9] = Patient 2, 7 d after single 12 mg inhaled dose, baseline 5
[10] = both patients, after single 12 mg inhaled dose
[11] = both patients, all assessment time points (2 h, 1 d, 7 d) after single 12 mg inhaled dose
[12] = both patients, single 12 mg inhaled dose

COc1ccc2[nH]cc(CCN(C)C)c2c1 [5-MeO-DMT, 5-methoxy-N,N-dimethyltryptamine]
≤ 2 h: Time to clinical remission after a single administration [12] | Time to clinical response after administration [12]
10: MADRS (overall score 0 to 60) (Patient 1, 2 h after single 12 mg inhaled dose, baseline 31, sleep item carried forward from baseline)
No: C-SSRS Suicidal Ideation (any of the suicidal ideation items present) (Patient 1, 2 h after single 12 mg inhaled dose, baseline Yes) | C-SSRS Suicidal Ideation (any of the suicidal ideation items present) (Patient 1, 1 d after single 12 mg inhaled dose, baseline Yes) | C-SSRS Suicidal Ideation (any of the suicidal ideation items present) (Patient 1, 7 d after single 12 mg inhaled dose, baseline Yes) | C-SSRS Suicidal Ideation (any of the suicidal ideation items present) (Patient 2, 2 h after single 12 mg inhaled dose, baseline No) | C-SSRS Suicidal Ideation (any of the suicidal ideation items present) (Patient 2, 1 d after single 12 mg inhaled dose, baseline No) | C-SSRS Suicidal Ideation (any of the suicidal ideation items present) (Patient 2, 7 d after single 12 mg inhaled dose, baseline No)
18: BPRS (total, 18 symptoms each rated 1-7) (Patient 1, 1 d after single 12 mg inhaled dose, baseline 42) | BPRS (total, 18 symptoms each rated 1-7) (Patient 1, 7 d after single 12 mg inhaled dose, baseline 42) | BPRS (total, 18 symptoms each rated 1-7) (Patient 2, 7 d after single 12 mg inhaled dose, baseline 45)
fulfilled standard criteria: MADRS remission (MADRS total score equal or less than 10) [11] | MADRS response (at least 50% improvement from baseline) [11]
8: MADRS (overall score 0 to 60) (Patient 1, 1 d after single 12 mg inhaled dose, baseline 31)
2: BPRS Somatic concern (1-7) (Patient 1, 2 h after single 12 mg inhaled dose, baseline 3) | BPRS Depressive Mood (1-7) (Patient 1, 2 h after single 12 mg inhaled dose, baseline 6) | BPRS Anxiety (1-7) (Patient 1, 2 h after single 12 mg inhaled dose, baseline 7) | PGI-I (7-point scale; 1, Very much improved; 2, Much improved; 7, Very much worse) (Patient 2, 2 h after single 12 mg inhaled dose) | BPRS Anxiety (1-7) [7] | PGI-I (7-point scale; 1, Very much improved; 2, Much improved; 7, Very much worse) (Patient 2, 1 d after single 12 mg inhaled dose) | PGI-I (7-point scale; 1, Very much improved; 2, Much improved; 7, Very much worse) (Patient 2, 7 d after single 12 mg inhaled dose)
26: BPRS (total, 18 symptoms each rated 1-7) (Patient 2, 2 h after single 12 mg inhaled dose, baseline 45)
1: PGI-I (7-point scale; 1, Very much improved; 2, Much improved; 7, Very much worse) (Patient 1, 2 h after single 12 mg inhaled dose) | BPRS Unusual thought content (1-7) [1] | BPRS Guilt feelings (1-7) [2] | PGI-S (7-point scale; 1, Normal, not at all ill; 7, Extremely ill) [2] | PGI-I (7-point scale; 1, Very much improved; 2, Much improved; 7, Very much worse) (Patient 1, 1 d after single 12 mg inhaled dose) | BPRS Unusual thought content (1-7) [3] | BPRS Somatic concern (1-7) (Patient 1, 1 d after single 12 mg inhaled dose, baseline 3) | BPRS Tension (1-7) (Patient 1, 1 d after single 12 mg inhaled dose, baseline 4) | BPRS Guilt feelings (1-7) [4] | PGI-S (7-point scale; 1, Normal, not at all ill; 7, Extremely ill) [4] | BPRS Depressive Mood (1-7) (Patient 1, 1 d after single 12 mg inhaled dose, baseline 6) | BPRS Anxiety (1-7) (Patient 1, 1 d after single 12 mg inhaled dose, baseline 7) | PGI-I (7-point scale; 1, Very much improved; 2, Much improved; 7, Very much worse) (Patient 1, 7 d after single 12 mg inhaled dose) | BPRS Unusual thought content (1-7) [5] | BPRS Somatic concern (1-7) (Patient 1, 7 d after single 12 mg inhaled dose, baseline 3) | BPRS Tension (1-7) (Patient 1, 7 d after single 12 mg inhaled dose, baseline 4) | BPRS Guilt feelings (1-7) [6] | PGI-S (7-point scale; 1, Normal, not at all ill; 7, Extremely ill) [6] | BPRS Depressive Mood (1-7) (Patient 1, 7 d after single 12 mg inhaled dose, baseline 6) | BPRS Anxiety (1-7) (Patient 1, 7 d after single 12 mg inhaled dose, baseline 7) | BPRS Tension (1-7) (Patient 2, 2 h after single 12 mg inhaled dose, baseline 3) | BPRS Somatic concern (1-7) (Patient 2, 2 h after single 12 mg inhaled dose, baseline 4) | BPRS Guilt feelings (1-7) [7] | PGI-S (7-point scale; 1, Normal, not at all ill; 7, Extremely ill) [7] | BPRS Unusual thought content (1-7) (Patient 2, 2 h after single 12 mg inhaled dose, baseline 6) | MADRS suicidal thoughts item (0 to 6) (Patient 2, 1 d after single 12 mg inhaled dose, baseline 1) | BPRS Tension (1-7) (Patient 2, 1 d after single 12 mg inhaled dose, baseline 3) | BPRS Somatic concern (1-7) (Patient 2, 1 d after single 12 mg inhaled dose, baseline 4) | BPRS Anxiety (1-7) [8] | BPRS Depressive Mood (1-7) [8] | BPRS Guilt feelings (1-7) [8] | PGI-S (7-point scale; 1, Normal, not at all ill; 7, Extremely ill) [8] | BPRS Unusual thought content (1-7) (Patient 2, 1 d after single 12 mg inhaled dose, baseline 6) | BPRS Tension (1-7) (Patient 2, 7 d after single 12 mg inhaled dose, baseline 3) | BPRS Somatic concern (1-7) (Patient 2, 7 d after single 12 mg inhaled dose, baseline 4) | BPRS Anxiety (1-7) [9] | BPRS Depressive Mood (1-7) [9] | BPRS Guilt feelings (1-7) [9] | PGI-S (7-point scale; 1, Normal, not at all ill; 7, Extremely ill) [9] | BPRS Unusual thought content (1-7) (Patient 2, 7 d after single 12 mg inhaled dose, baseline 6)
27: BPRS (total, 18 symptoms each rated 1-7) (Patient 1, 2 h after single 12 mg inhaled dose, baseline 42)
19: BPRS (total, 18 symptoms each rated 1-7) (Patient 2, 1 d after single 12 mg inhaled dose, baseline 45)
3: BPRS Tension (1-7) (Patient 1, 2 h after single 12 mg inhaled dose, baseline 4) | MADRS (overall score 0 to 60) (Patient 1, 7 d after single 12 mg inhaled dose, baseline 31) | BPRS Depressive Mood (1-7) [7]
9: MADRS (overall score 0 to 60) (Patient 2, 2 h after single 12 mg inhaled dose, baseline 33, sleep item carried forward from baseline)
improved: Other general psychiatric symptoms assessed by the BPRS (somatic concern, anxiety, guilt, tension) [10] | Ratings for suicidality (suicidal thoughts item of the MADRS, C-SSRS Suicidal Ideation items) [10]
0: MADRS suicidal thoughts item (0 to 6) [1] | MADRS suicidal thoughts item (0 to 6) [3] | MADRS suicidal thoughts item (0 to 6) [5] | MADRS suicidal thoughts item (0 to 6) (Patient 2, 2 h after single 12 mg inhaled dose, baseline 1) | MADRS suicidal thoughts item (0 to 6) (Patient 2, 7 d after single 12 mg inhaled dose, baseline 1)
5: MADRS (overall score 0 to 60) (Patient 2, 1 d after single 12 mg inhaled dose, baseline 33) | MADRS (overall score 0 to 60) (Patient 2, 7 d after single 12 mg inhaled dose, baseline 33)

— patent US20250134861A1, “COMPOSITIONS COMPRISING 5-METHOXY-N,N-DIMETHYLTRYPTAMINE (5-MEO-DMT) FOR USE IN TREATING MENTAL DISORDERS” (GH RESEARCH IRELAND LIMITED, priority 2019, published 2025)
